Target: T1, ALDH2 (Homo sapiens, UniProt P05091)
T1 construct: made in house
T1 sequence (P05091 18-517): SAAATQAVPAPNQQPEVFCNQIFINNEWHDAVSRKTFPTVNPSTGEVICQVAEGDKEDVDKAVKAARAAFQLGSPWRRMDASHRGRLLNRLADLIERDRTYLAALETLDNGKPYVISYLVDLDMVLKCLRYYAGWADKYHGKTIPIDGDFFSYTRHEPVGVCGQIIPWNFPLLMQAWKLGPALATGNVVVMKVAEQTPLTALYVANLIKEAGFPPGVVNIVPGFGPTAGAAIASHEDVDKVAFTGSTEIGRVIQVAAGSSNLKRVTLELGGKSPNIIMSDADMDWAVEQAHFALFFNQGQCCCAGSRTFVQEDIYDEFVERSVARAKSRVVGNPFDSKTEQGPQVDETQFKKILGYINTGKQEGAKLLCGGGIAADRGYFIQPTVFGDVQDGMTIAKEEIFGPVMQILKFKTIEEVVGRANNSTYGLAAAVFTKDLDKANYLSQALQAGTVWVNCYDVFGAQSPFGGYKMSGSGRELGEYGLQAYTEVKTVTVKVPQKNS
Assay: ALDH2 enzyme kinetics assay
Type: biochemical
Details: 50-μM compound concentration
Description: Cloning, expression, and purification of human recombinant ALDH1A1, ALDH1A3, ALDH2, ALDH3A1, ALDH3A2, ALDH4A1, ALDH5A1 and ALDH7A1 isozymes were conducted as described previously (Chen, C. H. et al. (2015) Proc. Natl. Acad. Sci. U.S.A. 112, 3074-3079). Human ALDH1A2 (Origene, SC109995) and ALDH1B1 (T. Hurley, Indiana University) plasmids were cloned into the pET-15b expression vector (Novagen, 69661-3) containing an N-terminal hexahistidine tag. The mitochondria-targeting sequence of ALDH1B1 was also removed. […] The protein concentration for each fraction was measured (500 μL elution volume was collected as one fraction and was immediately mixed with 500 μL glycerol. The protein concentration for each fraction was measured (600 nm Protein Assay Reagent; Thermo Fisher Scientific), and protein-containing fractions were diluted with an equal volume of glycerol and stored at −80° C. Samples from each step were also collected for SDS-PAGE gel analysis. For ALDH1B1 protein co-expression with chaperones, pET-15b-ALDH1B1 and GroEL/GroES (Addgene, plasmid pBB541) plasmids were co-transformed into competent BL21 E. coli cells, which were subsequently grown in 1 L of Luria-Bertani medium containing 100 μg/mL ampicillin and 50 μg/mL spectinomycin at 37° C. […]

`COc1ccccc1-n1cc(-c2ccc(-c3ccccc3)cc2)[n+]2c1CCCCC2` [Imidazolium 2] was tested, and the “inhibition of ALDH2 activity” value was “neither imidazolium 1 or 2 could inhibit ALDH2 activity”.

Source: patent publication US12570661B2, “Isoform-specific aldehyde dehydrogenase inhibitors” (The Board of Trustees of the Leland Stanford Junior …, priority 2020, dated 2026)
